Read-outs that look alike come from different tables or passages of the source. Marks after values point to notes of the source that are not given here.
Tests used:
[1] = tested on: HCT-116; assay: Cell survival assay (SRB), HCT-116; assay type: cell-based; settings: Homo sapiens, HCT-116, 72 h
Description: (§1) 2.2. Cell Survival Assay: Standard Pharmacological Test Procedure. […] Compounds are incubated with cells for 3 days.

[2] = tested on: KB-3-1; assay: Cell survival assay (SRB), KB-3-1; assay type: cell-based, human
In short: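 Growth inhibition (IC50) is derived from SRB-measured protein content after a 3-day, duplicate exposure to serially diluted compound.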

[3] = tested on: MX-1W tumor; assay: Growth of tumors in nude mice, MX-1W xenograft; assay type: in vivo
Text: 2.4. Growth of Tumors in Nude Mice.

[4] = tested on: DLD-1; assay: Cell survival assay (SRB), DLD-1; assay type: cell-based; settings: Homo sapiens, DLD-1, 72 h, 3 days
Text: (§2) Cells lines with previously known mechanisms of resistance. […] Res. 8: 207-218,1996); KB-3-1 (parental derived from an epidermoid carcinoma), KB-8.5, KB-V1 (Akiyama S-I, Fojo A, Hanover J A, Pastan I, Gottesman M M. Isolation and genetic characterization of human KB cell lines resistant to multiple drugs. Somatic Cell Mol. Gen., 11: 117-126,1985; Shen D-W, Cardarelli C, Hwang J, Cornwell M, Richert N, Ishii S, Pastan I, Gottesman MM. […] J. Biol. Chem., 261: 7762-7770, 1986); and HL-60 (parental derived from human leukemia) and HL60/AR (McGrath T., Center M. S. Adriamycin resistance in HL60 cells in the absence of detectable P-glycoprotein. Biochem. Res. Commun., 145:1171-1176,1987); A549 and A549.EpoB40 (He L., Yang C.-P.H., Horwitz S. B. Mutations in p-tubulin map to domains involved in regulation of microtubule stability in epothilone-resistant cell lines. Molecular Cancer Therapeutics. 1: 3-10, 2001). HCT-15 human colon carcinoma and DLD-1 human colon carcinoma are obtained from American Tissue Culture Collection. The MX-1W carcinoma is a Wyeth variant orginally obtained as MX-1 breast carcinoma from the National Cancer Institute. Cell lines selected for resistance to Representative Example 129. KB-3-1 cells are selected for resistance to Example 129 by chronically exposing cells to increasing concentrations of Example 129.
(§3) 2.2. Cell Survival Assay: Standard Pharmacological Test Procedure. The concentration of candidate inhibitor required to inhibit 50% of cell growth (IC50) is done according to previously reported methods. […] Compounds are serially diluted into media as 2× stocks and 100 μl added to cells in duplicate. Compounds are incubated with cells for 3 days. At the end of the incubation period the sulforhodamine B (SRB) assay, which measures protein content as an assessment of cell survival, is performed as described previously (Skehan P, Storeng R, Scudiero D, Monks A, McMahon J, Vistica D, Warren J T, Bokesch H, Kenney S, Boyd MR. New calorimetric cytotoxicity assay for anticancer-drug screening. J Natl Cancer Inst 1990 Jul 4;82(13):1107-12) with some modification as follows. For KB-3-1 cells with 20% FCS, media is gently decanted and replaced with 200 μl of serum-free media mixed with cold 50% TCA for a final concentration of 10% TCA. The plates are incubated for 1 hr at 4° C., followed by washing 5 times in cold distilled water, then air dried overnight. The fixed cells are stained for 10 min with 80 μl of 0.04% SRB solution prepared in 1% glacial acetic acid. Stain is discarded and plates washed 5 times in 1% glacial acetic acid, then air-dried until completely dry. Stained cell product is dissolved in 150 μl of 10 mM Trizma Base and placed on a shaker for 20 minutes until fully dissolved. Absorbance is read on a Victor V multi-label plate reader (Perkin Elmer, Gaithersburg, Md.).

[5] = tested on: NCI-H1299; assay: Cell survival assay (SRB), NCI-H1299; assay type: cell-based; settings: Homo sapiens, NCI-H1299, 72 h
Description: as §1

[6] = tested on: KM20; assay: Cell survival assay (SRB), KM20; assay type: cell-based; settings: 72 h
Description: as §1

[7] = tested on: MX-1W; assay: Cell survival assay (SRB), MX-1W; assay type: cell-based; settings: Homo sapiens, MX1W, 72 h, 3 days
Text: as §2, §3

[8] = tested on: HL60/AR (MRP1); assay: Cell survival assay, HL60/AR (MRP1)
Text: as §2, §3
(§4) J. Cell Science,113: 2011-2021, 2000). It was unknown whether the hemiasterlin family of peptides interact with these drug pumps.

[9] = tested on: tumor cell lines; assay: cells; assay type: cell-based
Text: as §2, §3

[10] = tested on: S1-M1-3.2 (MXR); assay: Cell survival assay, S1-M1-3.2 (MXR); assay type: cell-based, human
Text: as §2, §3, §4

[11] = tested on: 1A9; assay: Cell survival assay (SRB), 1A9; assay type: cell-based; settings: Homo sapiens, 1A9, 72 h
Description: as §1

[12] = tested on: SK-Mel-2; assay: Cell survival assay (SRB), SK-Mel-2; assay type: cell-based; settings: Homo sapiens, SK-MEL-2, 72 h
Description: as §1

[13] = tested on: KB-V1 (MDR1++); assay: Cell survival assay (SRB), KB-V1 (MDR1++); settings: for IC50: Homo sapiens
[14] = MX-1W, Example 129 1.6 mg/kg IV, days 1,5,9

## CN[C@H](C(=O)N[C@H](C(=O)N(C)[C@H](/C=C(\C)C(=O)O)C(C)C)C(C)(C)C)C(C)(C)c1ccccc1 [Example 129, N,β,β-trimethyl-L-phenylalanyl-N^1-[(1S,2E)-3-carboxy-1-isopropylbut-2-enyl]-N^1,3-dimethyl-L-valinamide]
[1]
  IC50: 0.7 ± 0.2 nM
[2]
  IC50: 1.2 nM
[2]; Homo sapiens, KB 3-1
  IC50: ~1 nM
[2]; Homo sapiens, KB 3-1, 72 h
  IC50: 0.96 nM
[2]; Homo sapiens, KB 3-1, 72 h, read-out: IC50 + 5.0 uM MDR-1 inhibitor
  IC50: 0.9 nM
[2]; Homo sapiens, KB 3-1, 72 h, read-out: IC50 in parental cell line KB-3-1
  IC50: 1 nM
[2]; Homo sapiens, KB 3-1, read-out: KB-3-1 IC50 (nM)
  IC50: 0.612 ± 0.023 nM
[2]; Homo sapiens, KB 3-1, read-out: KB-3-1 IC50, nM
  IC50: 0.53 ± 0.05 nM
[2]; Homo sapiens, KB 3-1, read-out: KB-3-1 IC50, nM (N)
  IC50: 0.96 nM
[3]; [14]
  % T/C on day 7: 14** %
  % T/C on day 14: 3** %
[3]; orally administered
  effect on growth of MX-1W tumor: inhibited the growth
[3]; staged MX-1W xenograft, at MTD, days 11-15
  Activity in nude mice animal model (% T/C @ MTD on days 11-15) MX-1W: 6%
[4]; DLD-1, colon, SRB staining
  IC50: 1.1 ± 0.4 nM
[4]; DLD-1, SRB, vehicle control (DMSO), no MDR-1 inhibitor
  IC50: 1.2 nM
[4]; read-out: IC50 + 5.0 uM MDR-1 inhibitor, DLD-1, SRB, + 5.0 uM MDR-1 inhibitor (heptanenitrile of Table 2)
  IC50: 1.1 nM
[5]
  IC50: 6.8 ± 6.1 nM
[6]
  IC50: 1.8 ± 0.6 nM
[7]; MX-1W, breast, SRB staining
  IC50: 1.8 ± 0.6 nM
[7]; MX-1W, SRB, vehicle control (DMSO), no MDR-1 inhibitor
  IC50: 1.4 nM
[7]; read-out: IC50 + 5.0 uM MDR-1 inhibitor, MX-1W, SRB, + 5.0 uM 7-(6,7-dimethoxy-3,4-dihydro-1H-isoquinolin-2-yl)-2(3,4-dimethoxy-phenyl)-2-p-tolysulfanyl-heptanenitrile
  IC50: 1.3 nM
[8]; Homo sapiens, HL-60/AR, read-out: HL60/AR (MRP1) IC50, nM (N)
  IC50: 0.245 ± 0.45 nM
[8]; IC50 HL60/AR / IC50 HL60
  RR, relative resistance: 1.2
[9]; 72 h, read-out: AVERAGE IC50 (nM), average over the panel of tumor cell lines of Table 1; 3 days
  IC50: 2.1 ± 1.7 nM
[9]; HL60/AR (MRP1) or S1-M1-3.2 (MXR)
  resistance detected in cells over-expressing MRP1 or MXR: no resistance
[9]; read-out: IC50 in cell lines expressing moderate to very high MDR1, MX-1W, NCI-H1299, DLD-1, HCT-15
  IC50: 1.1 to 6.8 nM
[9]; read-out: IC50 in cell lines with undetectable or low level MDR1, NCI-H838, A549, HT-29, HCT-116, KB-3-1
  IC50: 0.7 to 1.6 nM
[9]; read-out: mean IC50, 34 tumor cell lines (Example 129); N=31 cell lines (paclitaxel)
  IC50: 2.1 ± 1.7 nM
[9]; read-out: median IC50, 34 tumor cell lines (Example 129); N=31 cell lines (paclitaxel)
  IC50: 1.7 nM
[9]; read-out: range of IC50, 34 tumor cell lines (Example 129); N=31 cell lines (paclitaxel)
  IC50: 0.2 to 7.3 nM
[9]; read-out: range of IC50; 34 tumor cell lines (Example 129); N=31 cell lines (paclitaxel)
  IC50: 0.2 to 7 nM
[10]; Homo sapiens, read-out: S1-M1-3.2 (MXR) IC50, nM (N)
  IC50: 4.8 ± 2.1 nM
[10]; IC50 S1-M1-3.2 / IC50 S1
  RR, relative resistance: 1.3
[11]
  IC50: 0.56 ± 0.09 nM
[12]
  IC50: 1.7 ± 0.5 nM
[13]
  RR, relative resistance: 81
  Ratio KBV1/KB: 80.6
  resistance of KB-V1 cells: 81 fold
[13]; 72 h
  IC50: 57 nM
[13]; 72 h, read-out: IC50 + 5.0 uM MDR-1 inhibitor
  IC50: 1.3 nM
[13]; read-out: KB-V1 (MDR1++) IC50, nM (N)
  IC50: 77.4 nM

Reference: patent US20040121965A1, “Method of treating resistant tumors” (Wyeth Holdings Corporation, priority 2002, published 2004)
